# Measurements published in US7462641B2, “(2S,4S)-4-fluoro-1-[4-fluoro-beta-(4-fluorophenyl)-L-phenylalanyl]-2-pyrrolidinecarbonitrile p-toluenesulfonic acid salt and anhydrous crystalline forms thereof” (SmithKline Beecham Corporation, priority 2003, dated 2008).
# Where a name gives a salt, the structure may show the parent alone.
# How the values were obtained:
# [1] = Stability testing in 40 C/75% RH oven; type: physicochemical; conditions: after two (2) weeks in an 40 C/75% RH oven
# [2] = Moisture sorption testing (gas flow microbalance, VTI SGA-100); type: physicochemical; conditions: for hygroscopicity: 25° C.
# Protocol: The sample was equilibrated at 25° C. and 30% relative humidity and the relative humidity increased stepwise (adsorption) to 40, 50, 60, 70, 80, 90%—each relative humidity step was held until the sample equilibrated at that condition. Equilibrium was defined as a weight change of less than 0.015% in 5 minutes. The relative humidity was then decreased step wise (desorption) to 90, 80, 70, 60, 50, 40, 30, 20, 10, and 5%—each step held until equilibrium was reached. The equilibrium condition was the same as in the sorption phase. The % w/w increase or decrease in moisture content of the sample is reported for each equilibrated RH condition.
# The sample was dried at 60C under a dry nitrogen stream until the rate of weight loss was less than 0.015% in 5 minutes. After drying the sample was equilibrated at 25C and the relative humidity increased stepwise (adsorption) to 5, 20, 45, 75, and 95%—each relative humidity step was held until the sample equilibrated at that condition or a 180 minute time limit was reached. Equilibrium was defined as a weight change of less than 0.015% in 5 minutes. The relative humidity was then decreased step wise (desorption) to 75, 45, and 20%—each step held until equilibrium was reached. The equilibrium condition was the same as in the sorption phase. The % w/w increase or decrease in moisture content of the sample is reported for each equilibrated RH condition.
# [3] = target: DPP IV (Homo sapiens, UniProt P27487); conditions: as noted in WO 03/02531; cited from earlier work
# Sequence of DPP IV (P27487 whole entry, species assumed): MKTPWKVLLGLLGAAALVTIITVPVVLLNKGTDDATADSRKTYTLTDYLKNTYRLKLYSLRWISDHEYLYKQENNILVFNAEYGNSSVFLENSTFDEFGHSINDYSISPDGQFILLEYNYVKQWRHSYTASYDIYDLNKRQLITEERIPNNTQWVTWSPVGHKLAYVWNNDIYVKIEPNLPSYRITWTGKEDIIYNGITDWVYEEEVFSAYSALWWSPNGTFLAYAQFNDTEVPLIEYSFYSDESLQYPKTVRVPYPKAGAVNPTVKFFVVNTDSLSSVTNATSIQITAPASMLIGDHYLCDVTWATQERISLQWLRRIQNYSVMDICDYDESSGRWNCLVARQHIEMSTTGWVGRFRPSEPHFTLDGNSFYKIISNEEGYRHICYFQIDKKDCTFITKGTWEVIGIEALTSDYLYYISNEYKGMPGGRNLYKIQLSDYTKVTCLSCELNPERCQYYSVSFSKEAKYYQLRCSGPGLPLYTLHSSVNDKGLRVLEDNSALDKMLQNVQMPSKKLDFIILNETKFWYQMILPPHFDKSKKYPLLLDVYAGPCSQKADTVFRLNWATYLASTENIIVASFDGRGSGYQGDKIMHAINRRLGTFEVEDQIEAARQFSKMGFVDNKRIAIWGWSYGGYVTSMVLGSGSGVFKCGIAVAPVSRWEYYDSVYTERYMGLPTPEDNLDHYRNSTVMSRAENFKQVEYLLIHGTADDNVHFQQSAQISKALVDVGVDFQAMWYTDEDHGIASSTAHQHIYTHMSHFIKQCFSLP
SMILES,stability (purity data) [1],hygroscopicity [2],water adsorbed ([2]; relative humidity between 0% and 95% at 25C),water adsorbed ([2]; relative humidity between 5% to 90% at 25° C.),desorption of adsorbed water ([2]; when the relative humidity is decreased),hygroscopicity ([2]; hydrochloride),water adsorbed ([2]; 95% relative humidity at 25° C.),inhibition activity of DPP IV [3]
"N#C[C@@H]1C[C@H](F)CN1C(=O)[C@@H](N)C(c1ccc(F)cc1)c1ccc(F)cc1 [anhydrate form 1, (2S,4S)-4-fluoro-1-[4-fluoro-β-(4-fluorophenyl)-L-phenylalanyl]-2-pyrrolidinecarbonitrile p-toluenesulfonic acid salt]",beneficial properties with regard to stability,not hygroscopic,less than 1 % w/w,very little water,readily desorbs,,,
"N#C[C@@H]1C[C@H](F)CN1C(=O)[C@@H](N)C(c1ccc(F)cc1)c1ccc(F)cc1 [HCl salt, (2S,4S)-1-[(2S)-2-Amino-3,3-bis(4-fluorophenyl)propanoyl]-4-fluoropyrrolidine-2-carbonitrile hydrochloride, reference compound]",,,,,,hygroscopic,> 10%,demonstrates inhibition activity of DPP IV
